Measurements taken from ChEMBL document CHEMBL3507680, “University of Dundee, Gates Library screen for HepG2 cell viability”.

Test: Human HepG2 cell viability assay in 384 well format
Type: toxicity, cell-based
Set-up: dose 125 nL, time 70.5 hour; concentration not given beside the values
Conditions: HepG2 cells, read-out: Inhibition

| Compound | cytotoxicity at 70.5 h |
| --- | --- |
| COc1ccc(CNCCc2cc(F)cc3c2OCOC3)c(OC)c1 | 25.5% |
| O=C(CN1CCCC1Cn1cncn1)Nc1ccc(Cl)cn1 (centres undefined) | -3.38% |
| Cc1cnn(CC2CCCCN2CC(=O)Nc2cccnc2)c1 (centres undefined) | 0.635% |
| CCc1cnc(CN(C)C2CCN(CC3CCN(C(C)=O)CC3)C2)o1 (centres undefined) | 10% |
| COc1ccc(CNC(=O)NC(C)(CO)C2CC2)c(C(F)(F)F)c1 (centres undefined) | 0.673% |
| CN(Cc1noc(C2CC2)n1)C1CCN(Cc2nc(C3CC3)no2)C1 (centres undefined) | 0.524% |
| Cc1n[nH]c(C2CN(C(=O)CCCn3cccn3)CCO2)n1 (centres undefined) | -2.71% |
| CCc1cnc(CN(C)C2CCN(CC3CCC3)C2)o1 (centres undefined) | 8.96% |
| N#CC1(C(=O)NCc2ccc(F)cc2)CCCC1 | 3.1% |
| CN(C)C(CNC(=O)c1cccc(C(N)=O)c1)c1ccccc1Cl (centres undefined) | 3.17% |
| CC(CN1CCOCC1)NC(=O)c1cc(Cl)c2c(c1)OCO2 (centres undefined) | 2.56% |
| COc1ccc(NC(=O)N(CCO)Cc2ccsc2)cc1 | -3.63% |
| COc1ccccc1NC(=O)N(CCO)Cc1ccsc1 | 5.1% |
| CC(C)c1ncncc1C(=O)NCCN1CCOCC1 | 1.2% |
| CC(C)c1ncncc1C(=O)NCCN1CCCC1 | 5.71% |
| CC(C)(C(=O)NCC(=O)NC1CC1)c1ccccc1F | 2.62% |
| CC(C)(CNC(=O)C(C)(C)c1ccccc1F)C(N)=O | 2.08% |
| COc1ccc(CNC(=O)NCC(=O)NC2CC2)c(C(F)(F)F)c1 | 21.2% |
| CCCOc1cc(C)ccc1NC(=O)N(C)C | 4.68% |
| CN(C)C(CNC(=O)c1ccc(-n2cnnn2)cc1)c1ccccc1Cl (centres undefined) | 5.44% |

| Compound | cytotoxicity at 70.5 h |
| --- | --- |
| COc1ccc(CNC(=O)NC2CCN(C)CC2)c(C(F)(F)F)c1 | 2.4% |
| CC(CN1CCCC1=O)NC(=O)c1cc(Cl)c2c(c1)OCO2 (centres undefined) | 7.24% |
| CCN(C(=O)c1cnc(-c2ccc3c(c2)OCO3)s1)C1CC1 | 12.4% |
| Cc1cccc(S(=O)(=O)NC(=O)CCc2cscn2)c1 | 4.67% |
| CSc1ccc(NC(=O)NCC2CCCO2)cc1F (centres undefined) | 11.2% |
| Cc1ccc(S(=O)(=O)NC(=O)CCc2cscn2)cc1Cl | 25.6% |
| Cc1ccc(C(=O)N2CCCC(n3cncn3)C2)o1 (centres undefined) | 1.71% |
| CC(C)c1cnc(CN(C)C2CCN(CCS(C)(=O)=O)C2)o1 (centres undefined) | 2.71% |
| Cc1nn(C)c(N2CCOCC2)c1CNC(C)c1ccccn1 (centres undefined) | 5.82% |
| Cc1nc(CN(C)C2CCN(Cc3nc(C4CC4)no3)C2)no1 (centres undefined) | -1.35% |
| CCCc1n[nH]c(C2CN(C(=O)CCn3nc(C)cc3C)CCO2)n1 (centres undefined) | 0.729% |
| CCCC(=O)NCC(=O)NC(c1ccc(Cl)cc1)C(F)(F)F (centres undefined) | 8.36% |
| C/C(=C/c1ccccc1)CNCc1cccc(C(N)=O)c1 | -10.9% |
| Cc1nc(CNC(=O)CCN2CCN(c3ccccn3)CC2)oc1C | 6.4% |
| Cc1nc(CNC(=O)CCN2CCN(c3ccccc3)CC2)oc1C | 2.07% |
| CS(=O)(=O)CCNC(=O)N(Cc1ccoc1)C1CCCCC1 | -7.65% |
| COc1ccc(OCC(=O)NS(=O)(=O)c2ccc(Cl)s2)cc1 | -8.59% |
| O=C(NCC1(c2cccc(F)c2)CC1)N1CCC2(CCOC2)C1 (centres undefined) | -7.28% |
| Cc1nc(CNc2ccc(C(=O)NCc3ccco3)cc2C)no1 | -11.5% |
| N#CCc1ccc(OCC(=O)NS(=O)(=O)c2ccc(Cl)s2)cc1 | -7.69% |

| Compound | cytotoxicity at 70.5 h |
| --- | --- |
| Cc1ncc(CNc2ccc(C(=O)NCc3ccco3)cc2C)s1 | 1.95% |
| O=C(Nc1ccc2c(c1)OC1(CCCC1)O2)c1ccc(=O)[nH]n1 | -6.98% |
| O=C(NCCN1CCOCC1)N(Cc1ccoc1)C1CCCCC1 | 1.39% |
| CCNC(=O)N(Cc1ccoc1)C1CCCCC1 | -5.6% |
| O=C(NCCCNc1ccccn1)NCC1CCS(=O)(=O)C1 (centres undefined) | -8.26% |
| CCN(CCNCc1ccc(C#N)cc1)C1CC1 | -6.58% |
| CC(=O)N(Cc1ccoc1)C1CCCCC1 | -5.21% |
| CN(CCN1CCCC1=O)CC(c1cccs1)N1CCOCC1 (centres undefined) | -11.7% |
| CC(CO)(NCc1noc(Cc2ccccc2)n1)C1CCCCC1 (centres undefined) | -0.885% |
| COCCOc1ccc(CNc2nc3ccccc3o2)cn1 | -10.8% |
| Cc1ccc(-c2nc(CSCCC(=O)NC(N)=O)co2)c(C)c1 | 22% |
| Cc1ccc(S(=O)(=O)NC(=O)C2(c3ccc(F)cc3)CCC2)c(C)c1 | 26.9% |
| CS(=O)(=O)CCC(=O)N(CCc1cccc(F)c1)C1CC1 | -11.4% |
| Cn1c2ncccc2c(=O)n1CC(=O)NCCC1=CCCCC1 | -2.08% |
| O=C(NC1CCCN(c2ccccc2Cl)C1)c1c[nH]nn1 (centres undefined) | -10.1% |
| O=C(NC1CCCN(c2ccccc2Cl)C1)c1nc(=O)[nH][nH]1 (centres undefined) | 25.3% |
| CSc1ccc(OCCN2CCC(n3cncn3)CC2)cc1 | -13.7% |
| N#Cc1ccsc1N1CCC(Sc2ncc[nH]2)C1=O (centres undefined) | -7.58% |
| COc1cc2c(c(OC)c1OC)CCN(CCN1CCCCC1)CC2 | -10.5% |
